# Assay results: publication PMC10534672, “A Nucleus-Targeting WT1 Antagonistic Peptide Encapsulated in Polymeric Nanomicelles Combats Refractory Chronic Myeloid Leukemia” (Pharmaceutics, 2023)
# pIC50: −log10 of the molar value. Ends that are not written are not given here.
# What was measured:
# [1] = test system: WT1+ BP-CML xenograft (K562) mice; experiment: Splenic infiltration (Ki67 staining of spleen); type: in vivo, BALB/c nude mice; settings: after 14 days daily treatment, n = 3
# K562 cells [2] = experiment: Cellular uptake by flow cytometry; type: cell-based, human; settings: FITC-WIP2W 0.05, 0.5 and 5 μM, K562, 37 °C, 2 h, n = 3
# Protocol: The percentage of positive cells and their mean fluorescence intensity were then analyzed using a flow cytometer, with each condition tested in triplicate (n = 3).
# L02 cells = experiment: Cytotoxicity assay (CCK-8); settings: L02, up to 40 μM, 24 h
# Protocol: (§1) K562 (1.5 × 10^4/well) and L02 (8 × 10^3/well) cells were seeded in 96-well plates and incubated with gradient concentrations of peptides or micelles in complete mediums. After 24 or 48 h of incubation, each well was spiked with CCK-8 agent (10 μL) for another 2 h. Absorption was detected by a spectrophotometer at 450 nm (Molecular Devices, San Jose, CA, USA), and IC50 values were calculated by curve fitting.
# WT1 protein [3] = target: T1, WT1 protein (Homo sapiens, UniProt P19544); experiment: Pull-down assay with biotin-WIP2W on streptavidin magnetic beads, anti-WT1 immunoblot; type: binding; set-up: incubated with protein lysates, including the nuclear and cytoplasmic proteins from K562 cells; endogenous in cells; host or cells: K562 cells; settings: nuclear and cytoplasmic protein lysates of K562 cells, 2 h at 25 °C, anti-WT1 Western blot
# T1 sequence (P19544 whole entry): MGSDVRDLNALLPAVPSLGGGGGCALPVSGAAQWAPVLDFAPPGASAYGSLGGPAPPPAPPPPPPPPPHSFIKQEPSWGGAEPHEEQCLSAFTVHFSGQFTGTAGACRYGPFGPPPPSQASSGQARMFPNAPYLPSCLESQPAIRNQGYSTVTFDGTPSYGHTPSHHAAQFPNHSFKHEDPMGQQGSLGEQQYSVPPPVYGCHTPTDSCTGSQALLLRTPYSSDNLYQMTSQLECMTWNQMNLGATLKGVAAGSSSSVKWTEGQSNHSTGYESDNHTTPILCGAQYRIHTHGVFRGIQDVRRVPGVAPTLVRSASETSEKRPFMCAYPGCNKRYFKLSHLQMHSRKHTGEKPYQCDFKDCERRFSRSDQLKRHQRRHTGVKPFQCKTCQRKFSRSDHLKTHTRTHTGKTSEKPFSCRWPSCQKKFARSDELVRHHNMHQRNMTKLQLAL
# Protocol: Proteins from different localizations were harnessed for peptide–protein interaction studies. […] The bound WIP2W beads were magnetically separated, discarding the unattached WIP2W molecules in the leftover solution. The combined protein extracts from the whole cell, nucleus, and cytoplasm were then exposed to the WIP2W beads for another 2 h at 25 °C. Finally, the bead eluates were probed using an anti-WT1 antibody.
# [4] = Biological safety in vivo (body weight, H&E of major organs)
# [5] = test system: WT1+ BP-CML xenograft (K562) mice; settings: single subcutaneous injection, 30 mg/kg WIP2W (FITC-labelled), 4 h, IVIS of heart, liver, spleen, lung, kidney
# Protocol: In this study, a WT1^+ BP-CML xenograft mouse model was developed. K562 cells (1 × 10^7/animal) were injected subcutaneously into the flanks of 5-week-old female BALB/c nude mice to generate primary BP-CML tumors. Once the tumors became noticeable, the mice were euthanized, and tumor cells were harvested. These cells were then reintroduced subcutaneously into a new set of hosts (1 × 10^7/animal) for further therapeutic investigations. […] Four hours post-administration, the mice were euthanized. Their tumors and primary organs were then extracted and assessed for fluorescence using IVIS (in vivo imaging system) equipment from PerkinElmer, USA.
# K562 cells [6] = experiment: Intracellular localization by confocal laser scanning microscopy; type: cell-based, human; settings: FITC-WIP2W 10 μM, K562, 37 °C, 3.5 h, Hoechst33342
# Protocol: The precise localization of WIP2W was identified using the same microscope. K562 cells, after being exposed to FITC-WIP2W (10 μM) at 37 °C for 3.5 h, were gathered and stained with Hoechst33342. They were then moved to confocal dishes, where fluorescence data were captured.
# [7] = test system: WT1+ BP-CML xenograft (K562) mice; experiment: In vivo antitumor efficiency; set-up: species or system BALB/c nude mice; settings: tumors excised after 14 days daily s.c. treatment, WIP2W 30 mg/kg
# Protocol: These tumor-bearing mice were then randomly assigned to one of four groups (n = 5 per group). […] The subcutaneous tumor volume (mm^3) and body weight (g) were recorded three times per week, and the tumor volume can be computed according to the following equation:Tumor volume (mm^3) = L × W × W/2(2) where “L” and “W” denote the maximum and minimum dimensions, respectively. On day 19, the mice were slaughtered, and the retrieved major organs and tumors were stained with hematoxylin and eosin (H&E), WT1, and Ki67, respectively.
# WT1 protein [8] = target: T1, WT1 protein; experiment: WT1 immunohistochemistry of excised tumors; type: in vivo, BALB/c nude mice; set-up: The excised tumors underwent immunohistochemical analysis using an anti-WT1 antibody; from tissue; host or cells: excised K562 xenograft tumours from BALB/c nude mice; settings: anti-WT1 IHC, after 14 days daily s.c. treatment, WIP2W 30 mg/kg
# Excerpt: […]. […] […].
# K562 cells [9] = test system: K562 cells
# Protocol: as §1
# [10] = Encapsulation efficiency of PEG-PE micelles by ultrafiltration; type: physicochemical; settings: n = 3
# Protocol: The ability of PEG-PE micelles to encapsulate WIP2W was assessed using an ultrafiltration method. Solutions of FITC-WIP2W-loaded micelles (with PEG-PE concentrations of 5, 10, 30, 50, 100, and 200 μM, and FITC-WIP2W at 10 μM) were placed into an ultra-centrifugal filter (MWCO 100,000, Millipore, Burlington, MA, USA). They were then centrifuged at 12,000× g for 30 min. The fluorescence intensity of the filtrate was subsequently measured spectrophotometrically. A concentration-to-fluorescence intensity relationship was then derived to determine the amount of unencapsulated FITC-WIP2W in the filtrate. From this, the encapsulation efficiency (EE%) of PEG-PE micelles for WIP2W can be calculated, as shown below. EE% = incorporated WIP2W/initial WIP2W added × 100%(1)
# K562 cells [11] = experiment: Cell cycle analysis (PI, flow cytometry); type: cell-based, human; settings: K562, 10 μM, 24 h
# Protocol: K562 cells were incubated in the absence and presence of WIP2W (10 μM) for 24 h. Subsequently, these cells were collected and fixed with 75% cold ethanol overnight, followed by treatment with propidium iodide (PI) and RNase A. Then, the cell fluorescence was examined using flow cytometry, and the cell cycle profiles were analyzed using FlowJo 10.
# myeloid leukemia = settings: cited from earlier work
# Excerpt: In CML, the influence of WT1 stems from its robust transcriptional control of genes associated with cell growth, metabolism, differentiation, and apoptosis. Interventions targeting WT1 can induce cell cycle arrest and apoptosis. […] Similarly, WT1-specific RNA interference led to an increase in G0/G1-phase cells and a decrease in S-phase cells. In this study, the WIP2W peptide halted the cell cycle in ...
Molecule,Ki67 staining of spleen (splenic infiltration of CML cells) [1],Cellular uptake (K562 cells [2]),Cytotoxicity in normal hepatic cell line L02 (L02 cells),Binding of WIP2W to WT1 protein (pull-down) (WT1 protein [3]),"Body weight ([4]; 14 days daily treatment, compared to control and imatinib groups)","H&E staining of major organs (systemic toxicity) ([4]; after 14 days daily treatment, imatinib 50 mg/kg i.p., WIP2W 30 mg/kg s.c.)",Distribution in major organs [5],Intracellular localization (K562 cells [6]),H&E staining of tumor tissues [7],WT1 protein levels in tumor tissues relative to controls (WT1 protein [8]),"Cell viability (K562 cells [9]; K562, 20 μM, 24 h, CCK-8, PBS control = 100%) [%]","pIC50 (K562 cells [9]; read-out: IC50 (concentration that inhibited 50% K562 cell proliferation), K562, 24 h, CCK-8, n = 6)","Encapsulation efficiency (EE%) ([10]; molar ratio PEG-PE:WIP2W 3:1, FITC-WIP2W 10 μM in PBS, ultrafiltration MWCO 100,000, fluorescence)","Encapsulation efficiency (EE%) ([10]; molar ratio PEG-PE:WIP2W surpassed 10, FITC-WIP2W 10 μM in PBS, ultrafiltration, fluorescence)",G2/M phase compartment of cell cycle distribution (K562 cells [11]; n = 3 (control 22.4%)) [%],G0/G1 phase compartment of cell cycle distribution (K562 cells [11]; n = 3 (control 24.1%)) [%],Effect on cell cycle progression (myeloid leukemia)
"Cc1ccc(NC(=O)c2ccc(CN3CCN(C)CC3)cc2)cc1Nc1nccc(-c2cccnc2)n1 [imatinib, reference compound]",pronounced fluorescence in the spleen,,,,,,,,,,,,,,,,
WWGGDQRRSWGRRRPDRRYGRKKRRQRRR [WIP2W],negligible signs of metastatic CML cells in the spleen,concentration dependency,no apparent cytotoxicity,specifically bind to the WT1 protein in both the nucleus and cytoplasm,no significant weight loss,minimal systemic toxicity,predominantly distributed in the liver and kidneys,majority of the green fluorescence was pinpointed in K562 cells’ nuclei,pronounced cell death,significantly diminished,< 10,5.01,approximately 72%,exceeded 95%,14.1,32.4,
COc1cc(/C=C/C(=O)CC(=O)/C=C/c2ccc(O)c(OC)c2)ccc1O [curcumin],,,,,,,,,,,,,,,,,induce cell death and G2/M phase arrest
